Laboratory results reported in the NIST ThermoML archive (doi:10.1016/j.tca.2011.11.036).

Assay: molar heat capacity at constant pressure; xn = mol fraction of the nth substance listed
Conditions: 101 kPa, Liquid, Small sample (50 mg) DSC

C[N+](C)(C)CCO.[Cl-] [choline chloride] + OCC(O)CO
x1 = 0.3333
Conditions | molar heat capacity at constant pressure [J/K/mol]
303.15 K | 237.7
308.15 K | 239.1
313.15 K | 240.8
318.15 K | 241.9
323.15 K | 243.5
328.15 K | 244.9
333.15 K | 246.9
338.15 K | 248.4
343.15 K | 250.3
348.15 K | 252.1
353.15 K | 254.3

C[N+](C)(C)CCO.[Cl-] [choline chloride] + OCCO
x1 = 0.3333
Conditions | molar heat capacity at constant pressure [J/K/mol]
303.15 K | 190.8
308.15 K | 192.2
313.15 K | 194
318.15 K | 194.9
323.15 K | 196.4
328.15 K | 197.6
333.15 K | 199.2
338.15 K | 200.6
343.15 K | 202.1
348.15 K | 203.9
353.15 K | 205.6

NC(N)=O [urea] + C[N+](C)(C)CCO.[Cl-]
x2 = 0.3333
Conditions | molar heat capacity at constant pressure [J/K/mol]
303.15 K | 181.4
308.15 K | 182.2
313.15 K | 183.2
318.15 K | 183.5
323.15 K | 184.5
328.15 K | 185.3
333.15 K | 186.4
338.15 K | 187.4
343.15 K | 188.5
348.15 K | 189.5
353.15 K | 190.8
